Measured values from patent US12371454B2, “Cyclic peptide compound having Kras inhibitory action” (priority 2019, dated 2025).
Positions of bridges follow the written chain, without caps; N, C: chain ends. Non-standard residues stand in square brackets, D forms with d. Residues, ends and D or L forms follow the SMILES beside them. *: point of attachment. hPhe(3-Cl-4-CF3) = N[C@@H](CCc1ccc(C(F)(F)F)c(Cl)c1)C(=O)O; 3Oxa8azabicyclo(3.2.1)octane = C1CC2COCC1N2*; NMePhe(4-Cl) = CN[C@@H](Cc1ccc(Cl)cc1)C(=O)O; NMePhe(4-Me) = CN[C@@H](Cc1ccc(C)cc1)C(=O)O; NMeNle(6-CHF2) = CN[C@@H](CCCCC(F)F)C(=O)O; hPhe(4-Cl) = N[C@@H](CCc1ccc(Cl)cc1)C(=O)O; NMeAla(cPent) = CN[C@@H](CC1CCCC1)C(=O)O; NMeGly(cPent) = CN[C@H](C(=O)O)C1CCCC1; Gly(cPent) = N[C@H](C(=O)O)C1CCCC1; NMeCha = CN[C@@H](CC1CCCCC1)C(=O)O; NMeCba = CN[C@@H](CC1CCC1)C(=O)O; NMeChg = CN[C@H](C(=O)O)C1CCCCC1; NMeI = CC[C@H](C)[C@H](NC)C(=O)O; NMeD = CN[C@@H](CC(=O)O)C(=O)O; NMeL = CN[C@@H](CC(C)C)C(=O)O; NMeNva = CCC[C@H](NC)C(=O)O; NMeV = CN[C@H](C(=O)O)C(C)C; NMeS = CN[C@@H](CO)C(=O)O; NMeA = CN[C@@H](C)C(=O)O; Piperidide = C1CCN(*)CC1; Pyrrolidide = C1CCN(*)C1; Ac5c = NC1(C(=O)O)CCCC1; Aze = O=C(O)[C@@H]1CCN1; Ac4c = NC1(C(=O)O)CCC1; Sar = CNCC(=O)O; Propyl = CCC*

Assays:
[1] = system: Human pancreatic cancer cell line AsPC-1; experiment: Measurement of AsPC-1 cell growth inhibition (AsPC-1 CGI); format: cell-based; settings: 96 h
How it was run: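 AsPC-1 cells in 15% FBS RPMI-1640 were exposed to test compound for 96 hours at 37° C, with CellTiter-Glo as endpoint.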

[2] = molecular target: T1, Kras and SOS1 (biotin-tagged human Kras loaded with GDP, His-tagged human SOS1) (Homo sapiens, UniProt P01116, G12D); experiment: Protein-protein interaction inhibition between Kras and SOS1 (KrasGl2D-SOS PPI) using AlphaScreen; format: binding; settings: AlphaScreen; biotin-tagged human Kras loaded with GDP, His-tagged human SOS1; read-out: KRAS G12D-SOS PPI IC50
T1 construct: made in house; host or cells: E. coli (stated for Kras only)
How it was run: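 Donor beads (nickel) hold His-SOS1; acceptor beads (streptavidin) hold biotin-Kras bound to GDP. Signal measured at 520-620 nm following 680 nm excitation.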

T1 sequence (P01116 1-188 isoform P01116-2 G12D): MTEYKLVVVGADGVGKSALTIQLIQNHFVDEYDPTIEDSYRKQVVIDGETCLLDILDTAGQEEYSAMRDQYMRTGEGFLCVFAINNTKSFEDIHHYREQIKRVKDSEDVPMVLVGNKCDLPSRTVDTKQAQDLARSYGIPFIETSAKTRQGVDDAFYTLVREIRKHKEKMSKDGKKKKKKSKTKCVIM

| Compound | IC50 [1] | IC50 [2] |
| --- | --- | --- |
| CC[C@H](C)[C@@H]1NC(=O)[C@H](CC(C)C)N(C)C(=O)C[C@@H](C(=O)N2CCCCC2)N(C)C(=O)[C@H](C2CCCC2)N(C)C(=O)C2(CCCC2)NC(=O)[C@@H]2CCCN2C(=O)[C@H](CCc2ccc(C(F)(F)F)c(Cl)c2)NC(=O)CN(C)C(=O)[C@H](CC2CCCCC2)N(C)C(=O)CN(C)C(=O)CN(C)C1=O [Compound 1073] ([NMeL]I[Sar][Sar][NMeCha][Sar][hPhe(3-Cl-4-CF3)]P[Ac5c][NMeGly(cPent)][NMeD]-Piperidide; lactam N-11) | 20 to 50 nM | 2.1 nM |
| CC[C@H](C)[C@@H]1NC(=O)[C@H](CC(C)C)N(C)C(=O)C[C@@H](C(=O)N(C)C)N(C)C(=O)[C@H]([C@@H](C)CC)N(C)C(=O)C2(CCCC2)NC(=O)[C@H](Cc2ccc(Cl)cc2)N(C)C(=O)[C@H](CCc2ccc(C(F)(F)F)c(Cl)c2)NC(=O)CN(C)C(=O)[C@H](Cc2ccc(C)cc2)N(C)C(=O)[C@@H]2CCN2C(=O)[C@H](C)N(C)C1=O [Compound 838] ([NMeL]I[NMeA][Aze][NMePhe(4-Me)][Sar][hPhe(3-Cl-4-CF3)][NMePhe(4-Cl)][Ac5c][NMeI][NMeD]-NMe2; lactam N-11) | 100 to 500 nM | 10 nM |
| CCC[C@H]1C(=O)N[C@@H]([C@@H](C)CC)C(=O)N(C)CC(=O)N(C)CC(=O)N(C)[C@@H](CC2CCCC2)C(=O)N(C)CC(=O)N[C@@H](CCc2ccc(C(F)(F)F)c(Cl)c2)C(=O)N2CCC[C@H]2C(=O)NC2(CCCC2)C(=O)N(C)[C@@H](C2CCCCC2)C(=O)N(C)[C@H](C(=O)N2CCCC2)CC(=O)N1C [Compound 1975] ([NMeNva]I[Sar][Sar][NMeAla(cPent)][Sar][hPhe(3-Cl-4-CF3)]P[Ac5c][NMeChg][NMeD]-Pyrrolidide; lactam N-11) | 50 to 100 nM | 0.51 nM |
| CC[C@H](C)[C@@H]1NC(=O)[C@H](CCCCC(F)F)N(C)C(=O)C[C@@H](C(=O)N2CCCCC2)N(C)C(=O)[C@H](C2CCCCC2)N(C)C(=O)C2(CCCC2)NC(=O)[C@@H]2CCCN2C(=O)[C@H](CCc2ccc(C(F)(F)F)c(Cl)c2)NC(=O)CN(C)C(=O)[C@H](CC2CCCCC2)N(C)C(=O)CN(C)C(=O)CN(C)C1=O [Compound 425] ([NMeNle(6-CHF2)]I[Sar][Sar][NMeCha][Sar][hPhe(3-Cl-4-CF3)]P[Ac5c][NMeChg][NMeD]-Piperidide; lactam N-11) | 50 to 100 nM | 0.57 nM |
| CC[C@H](C)[C@@H]1NC(=O)[C@H](CC(C)C)N(C)C(=O)C[C@@H](C(=O)N2CCCC2)N(C)C(=O)[C@H](C2CCCCC2)N(C)C(=O)C2(CCCC2)NC(=O)[C@@H]2CCCN2C(=O)[C@H](CCc2ccc(Cl)cc2)NC(=O)CN(C)C(=O)[C@H](CC2CCCCC2)N(C)C(=O)CN(C)C(=O)CN(C)C1=O [Compound 1968] ([NMeL]I[Sar][Sar][NMeCha][Sar][hPhe(4-Cl)]P[Ac5c][NMeChg][NMeD]-Pyrrolidide; lactam N-11) | 50 to 100 nM | 1.2 nM |
| CC[C@H](C)[C@@H]1NC(=O)[C@H](CC(C)C)N(C)C(=O)C[C@@H](C(=O)N2CCCCC2)N(C)C(=O)[C@H](C(C)C)N(C)C(=O)C2(CCC2)NC(=O)[C@@H]2CCCN2C(=O)[C@H](CCc2ccc(C(F)(F)F)c(Cl)c2)NC(=O)CN(C)C(=O)[C@H](CC2CCCCC2)N(C)C(=O)CN(C)C(=O)CN(C)C1=O [Compound 712] ([NMeL]I[Sar][Sar][NMeCha][Sar][hPhe(3-Cl-4-CF3)]P[Ac4c][NMeV][NMeD]-Piperidide; lactam N-11) | 50 to 100 nM | 2.7 nM |
| CC(C)C[C@H]1C(=O)N[C@@H](C2CCCC2)C(=O)N(C)CC(=O)N(C)CC(=O)N(C)[C@@H](CC2CCCCC2)C(=O)N(C)CC(=O)N[C@@H](CCc2ccc(C(F)(F)F)c(Cl)c2)C(=O)N2CCC[C@H]2C(=O)NC2(CCCC2)C(=O)N(C)[C@@H](C(C)C)C(=O)N(C)[C@H](C(=O)N2CCCCC2)CC(=O)N1C [Compound 1064] ([NMeL][Gly(cPent)][Sar][Sar][NMeCha][Sar][hPhe(3-Cl-4-CF3)]P[Ac5c][NMeV][NMeD]-Piperidide; lactam N-11) | 100 to 500 nM | 4.3 nM |
| CC[C@H](C)[C@@H]1NC(=O)[C@H](CC(C)C)N(C)C(=O)C[C@@H](C(=O)N2CCCCC2)N(C)C(=O)[C@H](CC2CCC2)N(C)C(=O)C2(CCCC2)NC(=O)[C@@H]2CCCN2C(=O)[C@H](CCc2ccc(C(F)(F)F)c(Cl)c2)NC(=O)CN(C)C(=O)[C@H](CC2CCCCC2)N(C)C(=O)CN(C)C(=O)CN(C)C1=O [Compound 968] ([NMeL]I[Sar][Sar][NMeCha][Sar][hPhe(3-Cl-4-CF3)]P[Ac5c][NMeCba][NMeD]-Piperidide; lactam N-11) | 100 to 500 nM | 3.1 nM |
| CCCOC[C@H]1C(=O)N(C)CC(=O)N[C@@H](CCc2ccc(C(F)(F)F)c(Cl)c2)C(=O)N2CCC[C@H]2C(=O)NC2(CCCC2)C(=O)N(C)[C@@H](C2CCCCC2)C(=O)N(C)[C@H](C(=O)N2C3CCC2COC3)CC(=O)N(C)[C@@H](CCC)C(=O)N[C@@H]([C@@H](C)CC)C(=O)N(C)CC(=O)N(C)CC(=O)N1C [Compound 1971] ([NMeNva]I[Sar][Sar][NMeS](Propyl)[Sar][hPhe(3-Cl-4-CF3)]P[Ac5c][NMeChg][NMeD]-{3Oxa8azabicyclo(3.2.1)octane}; lactam N-11) | 100 to 500 nM | 1.1 nM |
